Earlier results as cited in US20230157586A1 (United States Government as Represented by the Department …, priority 2021, published 2023).
Changes are numbered by the printed parent chain.

What was measured:
[1] = target: T1, mutant CBG protein (GLy237Val substitution, SERPINA6) (Homo sapiens, UniProt P08185, G259V); conditions: previously reported; higher equilibrium dissociation constant KD
T1 sequence (P08185 23-405 G259V): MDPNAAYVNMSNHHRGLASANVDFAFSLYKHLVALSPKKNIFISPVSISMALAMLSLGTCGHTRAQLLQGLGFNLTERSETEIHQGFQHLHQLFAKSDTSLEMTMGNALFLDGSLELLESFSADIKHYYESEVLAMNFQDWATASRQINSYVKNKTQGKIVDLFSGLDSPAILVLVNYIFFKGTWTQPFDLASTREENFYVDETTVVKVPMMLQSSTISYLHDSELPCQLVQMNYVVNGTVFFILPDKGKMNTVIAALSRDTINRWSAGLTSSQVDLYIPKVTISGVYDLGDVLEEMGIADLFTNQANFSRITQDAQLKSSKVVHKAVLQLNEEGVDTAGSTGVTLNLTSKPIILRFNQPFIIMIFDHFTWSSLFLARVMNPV

[2] = target: T2, corticosteroid binding globulin (CBG) (Homo sapiens, UniProt P08185); conditions: 37° C.; same for each subject
T2 sequence (P08185 23-405): T1 sequence (P08185 23-405 G259V) with V237G

albumin = albumin (Homo sapiens, UniProt P02768); conditions: 37° C.; same for each subject
albumin, sequence (P02768 25-609): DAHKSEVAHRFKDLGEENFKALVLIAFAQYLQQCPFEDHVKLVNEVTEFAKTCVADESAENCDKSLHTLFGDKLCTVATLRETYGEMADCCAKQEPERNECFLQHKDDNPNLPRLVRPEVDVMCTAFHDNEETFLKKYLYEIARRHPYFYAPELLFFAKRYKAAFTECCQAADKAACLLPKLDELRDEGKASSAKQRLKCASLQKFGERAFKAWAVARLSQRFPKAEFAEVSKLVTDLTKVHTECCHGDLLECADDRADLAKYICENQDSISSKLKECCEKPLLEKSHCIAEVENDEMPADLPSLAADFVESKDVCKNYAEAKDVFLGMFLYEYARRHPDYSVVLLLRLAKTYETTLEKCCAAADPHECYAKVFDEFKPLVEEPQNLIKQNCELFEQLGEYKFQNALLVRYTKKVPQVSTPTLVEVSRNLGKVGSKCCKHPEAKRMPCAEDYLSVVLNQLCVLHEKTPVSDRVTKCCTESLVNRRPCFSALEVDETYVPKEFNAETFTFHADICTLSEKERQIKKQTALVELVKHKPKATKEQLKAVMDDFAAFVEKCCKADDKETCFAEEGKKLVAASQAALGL

C[C@]12CCC(=O)C=C1CC[C@@H]1[C@@H]2[C@@H](O)C[C@@]2(C)[C@H]1CC[C@]2(O)C(=O)CO [cortisol]
cortisol binding affinity of mutant CBG compared to wild type CBG protein [1]: markedly decreased cortisol binding affinity | κ1^C association rate constant (on-rate), CBG [2]: 3.62e+07 M/s | κ−1^C dissociation rate constant (off-rate), CBG [2]: 0.88 s⁻¹ | κ1^A association rate constant (on-rate), albumin (albumin): 8950 M/s | κ−1^A dissociation rate constant (off-rate), albumin (albumin): 2.2 s⁻¹
